Earlier results in patent US10450322B2, “Low molecular weight derivatives of carboxamide halogenated porphyrins, namely chlorins and bacteriochlorins, and their applications thereof” (LUZITIN, S.A., priority 2015, dated 2019).

Conditions: at physiological pH; cited from earlier work

Oc1cccc(-c2c3nc(c(-c4cccc(O)c4)c4ccc([nH]4)c(-c4cccc(O)c4)c4nc(c(-c5cccc(O)c5)c5ccc2[nH]5)CC4)C=C3)c1 [temoporfin, 5,10,15,20-tetra (m-hydroxyphenyl)chlorin]
log POW: 5.5
